Reference: patent US7803764B2, “Amphipathic glycopeptides” (The Arizona Board of Regents on Behalf of the University of …, priority 2004, dated 2010)
Non-standard residues stand in square brackets, D forms with d. No end group written: not given here. *: point of attachment. βGlc = OC[C@H]1O[C@@H](*)[C@H](O)[C@@H](O)[C@@H]1O; Aib = CC(C)(N)C(=O)O; βAla = NCCC(=O)O

Experiments:
δ opioid receptor = δ opioid receptor (Homo sapiens, UniProt P41143); assay: opioid receptor binding, δ receptor
[1] = in vivo antinociception after i.c.v. administration; parameters: species or system mice; conditions: i.c.v., mice; for A50 i.c.v.: antinociception
μ opioid receptor = μ opioid receptor (Homo sapiens, UniProt P35372); assay: opioid receptor binding, μ receptor
[2] = blood-brain barrier uptake / penetration; conditions: mice
[3] = helicity by circular dichroism; assay type: physicochemical; conditions: for % α-helicity: CD, SDS micelles (30 mM), pH = 7.0, 18° C.
Method: Circular Dichroism. All of the circular dichroism experiments were carried out on Aviv Associates model 60DS using an Endcal Model RTE4DD water circulator as a temperature-control vehicle. The instrument was calibrated by using d-10-camphorsulphonic acid. The spectra were recorded between 200 and 250 nm by using the continuous mode with a 1.5 nm bandwidth, a three second response and a scan step of 0.5 nm in a cell with a path length of 0.1 cm. Three or five scans were accumulated and averaged for each spectrum. Glycopeptide stock solutions were prepared by weighing the required amount, using Cahn/Ventron Instruments Model 21 automatic analytical electrobalance, to make 1 mL of a 0.5-1.0 mM solution and the pH was adjusted to the desired value. Samples were prepared by diluting the stock solution to 70-80 μM. All observed spectra were baseline-subtracted and smoothed by adjacent average of 5 points using Microcal Origin Ver. 5.0 software (Microcal Software Inc, USA). The molar ellipticities were determined using the formula [θ]=[θ]obs·(MRW)/10·l·C, where [θ]obs observed ellipticity in millidegrees, MRW is the mean residue weight, l is the cell path length in centimeters and C is the glycopeptide concentration in mg/mL. The percent α-helicity was determined by using the formula % helix=[θ]n→π*/−40,000 (1−2.5/n)·100, where n represents the number of amide bonds (including the C-terminal amide) in the glycopeptide and [θ]n→π** is molar ellipticity of n→π* transition band at 222 nm.^55
Conformational Analysis by CD. Circular dichroism (CD) is a powerful and simple tool for identifying secondary structure in both peptides and proteins.^64 All the peptides were subjected to CD analysis in H2O, TFE-H2O mixtures, SDS micelles and phospholipid bicelles. In H2O, a negative band near 200 nm is observed that arises from the π→π* electronic transition and is typical of random coil peptides. […] This behavior is explained as nascent helices.^65 In these nascent helices, helix CD signals could be induced by the addition of TFE.^66 All the glycopeptides gave an increased helix CD signal in TFE. The percentage of helicity increases as TFE concentration increases, but reached a maximum at 30% TFE. The increase in helicity in TFE can be attributed to decreased competition by H2O for hydrogen bonding to the backbone amides. […] In the presence of SDS micelles and anionic bicelles, the band at 200 nm underwent a red shift (higher value) and an additional shoulder appears around 222 nm as a result of the n→π* transition. […] The negative maxima at 222 nm (n→π* transition band) is used to calculate the helical content of polypeptides and proteins. The accepted value for a peptide that is 100% helical is approximately −35,000. It was observed that changes in amplitude of the bands up to 30% depend on length of helix.^67 The amplitude increases as α-helical chain length increases. Therefore, one has to consider the importance of chain-length dependence of the α-helix CD in the quantitative treatment of helix content in proteins and polypeptides. The percentage of helicity is independent of SDS concentration and pH (data not shown). In the presence of zwitterionic bicelles all of the glycopeptides yielded CD spectra similar to that observed in H2O, but anionic bicelles forced them to become more helical. The intensities of the [θ]π→π* band and the [θ]n→π* band are expected to be almost equal for a perfect α-helical peptide. […] A modest blue shift and reduced intensity for the [θ]n→π* transition bands are observed for all the glycopeptides in TFE. […] The glycopeptides 9 (Pro/Glc) and 12 (Pro/Lactose), which differ only by the sugar moiety attached, adopt perfect helices in the presence of SDS micelles and in anionic bicelles. The disaccharide increased the percentage of helicity in all the solvents, relative to the monosaccharide. […] It is remarkable to note that a single amino acid mutation at position 6 produced profound changes in the CD spectra. […]

[4] = helicity by NMR αCH chemical shift index; assay type: physicochemical
Method: NMR Spectroscopy. All NMR spectra were recorded on a Bruker DRX600 600 MHz spectrometer. Glycopeptide concentration for the NMR experiments varied from 2-3 mM. The glycopeptides were prepared in TFE-water solution by dissolving the peptide in 0.6 ml solution of a premixed 30% TFE-water mixture. The micelle samples were prepared by dissolving the glycopeptide and 100 equivalent of perdeuterated SDS in 0.6 ml of H2O/D2O (9:1 ratio by volume). Bicelles were produced from deuterated phospholipids. The zwitterionic bicelles were made by mixing the short chain phospholipid dihexanoyl-sn-glycero-3-phosphatidylcholine-d22 (DHPC) and the long chain 1,2-dimyristoyl-sn-glycero-3-phosphatidylcholine-d54 (DMPC) in the molar ratio of 2:1 in H2O. The […] were prepared by substituting 10 mol % of 1,2-dimyristoyl-sn-glycero-3-phospho-1-glycerol-d54 (DMPG) for DMPC. The glycopeptide to bicelle ratio was 1:25. After the glycopeptide was added to the bicelle solution, the system was submitted to a series o f three freeze/thaw/slight vortex shaking cycles. The pH of the each sample was adjusted to 4.5 by using DCl or NaOD as necessary. TSP (3-(trimethylsilyl)-d4-propionic acid) was added as an internal standard. The experiments in F3CCD2OD/H2O mixtures were at 293 K and for experiments in micelles/bicelles were at 298 or 311 K. Two-dimensional double quantum filtered correlation (DQF-COSY), rotating-frame Overhauser enhancement^56 (ROESY), Nuclear Overhauser enhancement^57 (NOESY), and total correlation spectra^58 (TOCSY) were acquired using standard pulse sequences and processed using XWINNMR (Bruker Inc) and FELIX2000 (Accelrys Inc, San Diego, Calif.), Mixing times for TOCSY spectra were either 80 or 100 ms. Mixing times for ROESY spectra were 150 or 250 ms, and for NOESY spectra were 200 or 300 ms. All experiments were 750 increments in t1, 16/32/64 scans each, 1.5 s relaxation delay, size 2 or 4K, and the spectral processing was with shifted sine bell window multiplications in both dimensions.
αCH Chemical Shift Index. […] At this point there is no accepted random coil αCH values for glycosylated serine, CSI values for this position are uncertain. The conformational shift values for all solvents were obtained using the random coil values described by Wright and co-workers.^72 Although, these reference shifts were obtained at pH=5.0 at 4.2° C., they appear to be very insensitive to the conditions, as very small deviations (±0.04) were observed when random coil values are obtained at pH=7.0 at 35° C. by Wuthrich and co-workers.^68 The quantification of secondary structure based on αCH chemical shifts is neglected in the literature because various contributions cannot be strictly accounted for, such as electrostatic effects, ring current shifts, and other magnetic anisotropies. However, it is possible to make qualitative comparison of helical content between closely related (glyco)peptides. Since the 3rd generation glycopeptides differ by only one amino acid at position 6, the helical content was obtained based on the αCH chemical shift values (Table 3). The method described by Gierasch and co-workers^69a was used. First, the average conformational shift was calculated for each glycopeptide by adding all upfield shifts in the helical regions and dividing by the total number of peptide bonds. Then, to obtain the overall helical content for each glycopeptide, the average conformational shift was divided by 0.35 ppm, which was assigned for 100% helicity. Since, there are no random coil values available for β-Alanine and glycosylated serine residues, they were not included in the calculation. The helicogenic Aib residue lacks an α-proton, and there was no correction included in the calculation for the helicity provided by Aib residue. The helical content obtained by this method correlated with the helical content obtained by CD. […]

mu opioid receptor = assay: opioid receptor assay, format not described (Table 1, µ IC50)
delta opioid receptor = assay: opioid receptor assay, format not described (Table 1, δ IC50)
[5] = solvent Bicelle A (anionic bicelles)

Sequence of μ opioid receptor (P35372 whole entry): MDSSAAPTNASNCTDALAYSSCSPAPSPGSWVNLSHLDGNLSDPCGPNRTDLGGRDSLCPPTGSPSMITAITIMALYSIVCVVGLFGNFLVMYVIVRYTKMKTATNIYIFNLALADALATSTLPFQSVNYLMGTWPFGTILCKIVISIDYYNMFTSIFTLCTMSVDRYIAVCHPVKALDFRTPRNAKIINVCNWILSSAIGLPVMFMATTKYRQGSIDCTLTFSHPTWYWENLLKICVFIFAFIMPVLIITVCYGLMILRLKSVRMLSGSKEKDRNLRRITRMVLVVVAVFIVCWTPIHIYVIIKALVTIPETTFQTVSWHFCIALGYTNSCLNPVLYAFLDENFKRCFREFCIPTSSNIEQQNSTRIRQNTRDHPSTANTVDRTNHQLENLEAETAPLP
Sequence of mu opioid receptor (P35372 whole entry): as above
Sequence of δ opioid receptor (P41143 whole entry): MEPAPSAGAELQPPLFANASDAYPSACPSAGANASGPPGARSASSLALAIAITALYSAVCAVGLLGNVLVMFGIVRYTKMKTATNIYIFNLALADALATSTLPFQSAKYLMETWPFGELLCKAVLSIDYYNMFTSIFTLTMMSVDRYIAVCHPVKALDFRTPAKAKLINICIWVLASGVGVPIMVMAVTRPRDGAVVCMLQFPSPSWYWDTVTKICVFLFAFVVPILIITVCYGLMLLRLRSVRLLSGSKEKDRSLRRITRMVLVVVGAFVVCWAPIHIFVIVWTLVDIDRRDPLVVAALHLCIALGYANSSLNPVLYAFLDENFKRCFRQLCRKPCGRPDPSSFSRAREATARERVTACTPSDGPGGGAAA

CC(C)C[C@H](NC(=O)[C@H](CO[C@@H]1O[C@H](CO)[C@@H](O)[C@H](O)[C@H]1O)NC(=O)[C@H](CCCCN)NC(=O)[C@H](CC(C)C)NC(=O)[C@H](C)NC(=O)[C@H](CCCCN)NC(=O)[C@H](CCC(=O)O)NC(=O)C(C)(C)NC(=O)[C@H](CC(C)C)NC(=O)[C@H](CC(N)=O)NC(=O)CCNC(=O)[C@H](CC(C)C)NC(=O)[C@H](Cc1ccccc1)NC(=O)CNC(=O)[C@H](NC(=O)[C@@H](N)Cc1ccc(O)cc1)[C@H](C)O)C(N)=O (relative stereo) [Glycopeptide 10, YtGFLβANLBEKALKS*L]
IC50 (δ opioid receptor): 0.109 µM
A50 i.c.v. [1]: 0.030 nmol
IC50 (μ opioid receptor): 0.153 µM
BBB uptake [2]: 0.183 microliters per min per gram of cortex
% α-helicity by CD [3, 5]: 27%
% α-helicity by CD ([3]; solvent H2O): >1%
% α-helicity by CD ([3]; solvent SDS micelles): 29%
% α-helicity by CD ([3]; solvent TFE): 22%
% α-helicity by NMR ([4]; solvent H2O): 17%
% α-helicity by NMR ([4]; solvent SDS micelles): 55%
% α-helicity by NMR ([4]; solvent TFE): 32%

YtGFLGALKS*FAES*LS*NA [Glycopeptide 5]
% α-helicity [3]: 58%

YtGFLGLLKS*FWES*WS*NF [Glycopeptide 8]
in vivo potency and duration of action (in words) ([1]; within 2nd generation series): lowest potency in vivo, but longest duration of action
% α-helicity [3]: 39%

CC(C)C[C@H](NC(=O)CNC(=O)[C@H](CC(C)C)NC(=O)[C@H](Cc1ccccc1)NC(=O)CNC(=O)[C@H](NC(=O)[C@@H](N)Cc1ccc(O)cc1)[C@H](C)O)C(=O)N[C@@H](CC(C)C)C(=O)N[C@@H](CCCCN)C(=O)N[C@@H](CO[C@@H]1O[C@H](CO)[C@@H](O)[C@H](O)[C@H]1O)C(=O)N[C@@H](Cc1ccccc1)C(=O)N[C@@H](C)C(=O)N[C@@H](CCC(=O)O)C(=O)N[C@@H](CO[C@@H]1O[C@H](CO)[C@@H](O)[C@H](O)[C@H]1O)C(=O)N[C@@H](Cc1c[nH]c2ccccc12)C(=O)N[C@@H](CO[C@@H]1O[C@H](CO)[C@@H](O)[C@H](O)[C@H]1O)C(=O)N[C@@H](CC(N)=O)C(=O)N[C@@H](Cc1ccccc1)C(N)=O (relative stereo) [Glycopeptide 6, YtGFLGLLKS*FAES*WS*NF]
IC50 (δ opioid receptor): 0.0119 µM
A50 i.c.v. [1]: 0.028 nmol
IC50 (μ opioid receptor): 0.154 µM
% α-helicity [3]: 37%

YtGFLPNLBEKALKS**L [Glycopeptide 12]
% α-helicity by CD [3, 5]: 33%
% α-helicity by CD ([3]; solvent H2O): >1%
% α-helicity by CD ([3]; solvent SDS micelles): 33%
% α-helicity by CD ([3]; solvent TFE): 23%
% α-helicity by NMR ([4]; solvent H2O): 22%
% α-helicity by NMR ([4]; solvent SDS micelles): 29%
% α-helicity by NMR ([4]; solvent TFE): 34%

CC(C)C[C@H](NC(=O)[C@H](Cc1ccccc1)NC(=O)CNC(=O)[C@H](NC(=O)[C@@H](N)Cc1ccc(O)cc1)[C@H](C)O)C(=O)NCC(=O)N[C@@H](CCCCN)C(=O)N[C@@H](CO[C@@H]1O[C@H](CO)[C@@H](O)[C@H](O)[C@H]1O)C(=O)N[C@@H](Cc1ccccc1)C(=O)N[C@@H](C)C(=O)N[C@@H](CCC(=O)O)C(=O)N[C@@H](CC(C)C)C(=O)N[C@@H](Cc1c[nH]c2ccccc12)C(=O)N[C@@H](CO[C@@H]1O[C@H](CO)[C@@H](O)[C@H](O)[C@H]1O)C(=O)N[C@@H](CC(N)=O)C(=O)N[C@@H](Cc1ccccc1)C(=O)N[C@@H](CC(C)C)C(=O)N[C@@H](CO[C@@H]1O[C@H](CO)[C@@H](O)[C@H](O)[C@H]1O)C(N)=O (relative stereo) [Glycopeptide 7, YtGFLGKS*FAELWS*NFLS*]
IC50 (δ opioid receptor): 0.0256 µM
A50 i.c.v. [1]: 0.096 nmol
IC50 (μ opioid receptor): 0.0382 µM
% α-helicity [3]: 15%

Y[dT]GFLGELAS(βGlc)KWFNALES(βGlc)-NH2 [Glycopeptide 2 (YtGFLGELAS*KWFNALES*)]
IC50 (mu opioid receptor): 0.144 µM
IC50 (delta opioid receptor): 0.0095 µM

Y[dT]GFLGKS(βGlc)FAELWS(βGlc)NFLS(βGlc)-NH2 [Glycopeptide 7 (YtGFLGKS*FAELWS*NFLS*)]
IC50 (mu opioid receptor): 0.0382 µM
IC50 (delta opioid receptor): 0.0256 µM

Y[dT]GFLPNL[Aib]EKALKS(βGlc)L-NH2 [Glycopeptide 9 (YtGFLPNLBEKALKS*L)]
IC50 (mu opioid receptor): 0.0908 µM
IC50 (delta opioid receptor): 0.00615 µM

Y[dT]GFL[βAla]NL[Aib]EKALKS(βGlc)L-NH2 [Glycopeptide 10 (YtGFLβANLBEKALKS*L)]
IC50 (mu opioid receptor): 0.153 µM
IC50 (delta opioid receptor): 0.109 µM

Y[dT]GFLGLLKS(βGlc)FAES(βGlc)WS(βGlc)NF-NH2 [Glycopeptide 6 (YtGFLGLLKS*FAES*WS*NF)]
IC50 (mu opioid receptor): 0.154 µM
IC50 (delta opioid receptor): 0.0119 µM

Y[dT]GFLGGNL[Aib]EKALKS(βGlc)L-NH2 [Glycopeptide 11 (YtGFLGGNLBEKALKS*L)]
IC50 (mu opioid receptor): 0.053 µM
IC50 (delta opioid receptor): 0.0325 µM
